# Test results from US9663429B2, “Vitamin D analogues of pharmaceutical interest” (UNIVERSIDADE DE SANTIAGO DE COMPOSTELA, priority 2013, dated 2017).
# Legend:
# [1] = Dose-response assay of serum calcium in mice; type: in vivo; conditions: for Serum calcium versus controls, analogues: doses 0.1, 0.5, 1 and 5 μg/kg ip every 2 days for 21 days
# Method: FIG. 9. […] 1,25D (dose of 0.3 μg/kg) and analogues (doses of 0.1, 0.5, 1 and 5 μg/kg) were injected intraperitoneally every 2 days for 21 days. After treatment the calcium levels in the serum were evaluated and the values were represented as mean±SD in […].
# (§1) Calcium mobilization of analogues was determined in 28 male CD-1 mice (6-8 weeks old). 6 Groups of 4 mice each were established, which mice were intraperitoneally (ip) injected with 0.3 μg/kg weight of each analogue or 1,25D dissolved in sesame oil every two days for 3 weeks. A seventh group of 4 mice treated with the carrier (sesame oil) served as controls. Calcium levels in blood were determined by QuantiChomCalciumAssay Kit (BioAssaySystems, Hayward, Calif., USA). In addition, a dose-response assay was performed to assess the effect of administration of the analogues PG-403 and PG136p and hormone (1,25D) at different doses on calcium levels. This assay was performed in male mice (5 mice per group), and the doses used were: 0.1, 0.5, 1, and 5 μg/kg weight of each analogue or 1,25D, i.p. administered every two days for 21 days. In addition, a control group (mice treated with sesame oil) was used.
# MDA-MB-231-Luc cells = experiment: In vivo anti-tumour activity, MDA-MB-231-Luc tumours in SCID mice
# Description: FIG. 13. In this figure the results obtained by treating a group of 32 mice with the analogue PG136 after being injected with MDA-MB-231-Luc cells are shown.
# FIG. 14. The survival rate of mice treated with the analogue PG136 after being injected with MDA-MB-231-Luc cells is shown and compared with control mice.
# In order to study the anti-tumour activity of the analogue PG136 in vivo, 32 immunosuppressed CB17-Prkdc^scid 8 weeks old female mice were used, called SCID (PRBB, Barcelona, Spain). These mice were injected subcutaneously with 5×10^6 breast tumour cells MCF-7 and MDA-MB-231 stably transfected with plasmid pcDNA3-Luciferase coding for the gene of the luciferase (called MCF-7-Luc and MDA-MB-231-Luc). Two groups of 8 mice were injected with cells MCF-7-Luc and other 2 groups of 8 mice with MDA-MB-231-Luc cells. Fifteen days after injection, the mice were started to be treated intraperitoneally every 2 days for 28 days with the analogue PG136 at a dose of 5 μ/kg dissolved in sesame oil used as carrier. The control group is treated in the same way and with the same range with sesame oil. Tumour size is determined every seven days once started the treatment using an in vivo imaging system (IVIS, Caliper Life Sciences, Alameda, USA), and the tumour size is calculated using a map of intensities retrieved using the Living Image (Caliper Life Sciences) software. […]
# MCF-7 cells [2] = experiment: 3D cell culture on matrigel (spheroid size), MCF-7; type: cell-based, human
# Method: FIG. 7. MCF-7 cells were shown for 10 days on a matrigel bed until they formed a 3D cellular structure. […] After treatment, the spheroids were stained with DAPI (4′,6-diamino-2-phenylindole) for 1 hour and photographed under an inverted microscope with ultraviolet light. The size of these spheroids was measured and the values were represented as mean±SD in relative units. […] Those cells treated with the carrier were considered as the control value.
# For 3D cell culture, a cushion of 200 μl of Matrigel (BD Biosciences) was used in each of the wells of multi-well plates of 24 wells. They were incubated at 37° C. for 20 minutes for their solidification and subsequently the cell suspension (5×10^3 cells per 100 μl volume of medium) was loaded onto the matrigel solidified and another incubation at 37° C. was performed for 30 minutes so that the cells penetrated properly on the matrigel base. 500 μl of DMEM medium were added to each well, and the cells were maintained in culture for 10 days. At the end of this time, the cells were started to be treated with each of the 5 analogues used and 1,25D.
# [3] = tested on: 24-hydroxylase promoter, CYP24A1 (pCYP24A1-Luc); experiment: Transactivation reporter assay (pCYP24A1-Luc) in MCF-7 cells
# Method: MCF-7 cells were transfected with the reporter vector of 24-hydroxylase (pCYP24A1-Luc vector) for 24 hours. […] The experiments were performed at least twice. The error bars represent the standard deviation (SD).
# MCF-7-Luc cells = experiment: In vivo anti-tumour activity, MCF-7-Luc tumours in SCID mice; conditions: 5 μ/kg ip every 2 days for 28 days, p≦0.05
# Method: FIG. 12. In this figure the results obtained by treating a group of 32 mice with the analogue PG136 after being injected with MCF-7-Luc cells are shown.
# In order to study the anti-tumour activity of the analogue PG136 in vivo, 32 immunosuppressed CB17-Prkdc^scid 8 weeks old female mice were used, called SCID (PRBB, Barcelona, Spain). These mice were injected subcutaneously with 5×10^6 breast tumour cells MCF-7 and MDA-MB-231 stably transfected with plasmid pcDNA3-Luciferase coding for the gene of the luciferase (called MCF-7-Luc and MDA-MB-231-Luc). Two groups of 8 mice were injected with cells MCF-7-Luc and other 2 groups of 8 mice with MDA-MB-231-Luc cells. Fifteen days after injection, the mice were started to be treated intraperitoneally every 2 days for 28 days with the analogue PG136 at a dose of 5 μ/kg dissolved in sesame oil used as carrier. The control group is treated in the same way and with the same range with sesame oil. Tumour size is determined every seven days once started the treatment using an in vivo imaging system (IVIS, Caliper Life Sciences, Alameda, USA), and the tumour size is calculated using a map of intensities retrieved using the Living Image (Caliper Life Sciences) software. In the case of the 2 groups of mice injected with MDA-MB-231-Luc cells, the experiment continued until day 60 and Kaplan-Meier Survival estimates were made.
# vitamin D receptor (VDR) = target: T1, vitamin D receptor (VDR) (Homo sapiens, UniProt P11473); experiment: Competitive binding to vitamin D receptor (Polarscreen VDR competitor assay, fluorescence polarisation)
# T1 construct: purchased Invitrogen
# T1 sequence (P11473 1-427): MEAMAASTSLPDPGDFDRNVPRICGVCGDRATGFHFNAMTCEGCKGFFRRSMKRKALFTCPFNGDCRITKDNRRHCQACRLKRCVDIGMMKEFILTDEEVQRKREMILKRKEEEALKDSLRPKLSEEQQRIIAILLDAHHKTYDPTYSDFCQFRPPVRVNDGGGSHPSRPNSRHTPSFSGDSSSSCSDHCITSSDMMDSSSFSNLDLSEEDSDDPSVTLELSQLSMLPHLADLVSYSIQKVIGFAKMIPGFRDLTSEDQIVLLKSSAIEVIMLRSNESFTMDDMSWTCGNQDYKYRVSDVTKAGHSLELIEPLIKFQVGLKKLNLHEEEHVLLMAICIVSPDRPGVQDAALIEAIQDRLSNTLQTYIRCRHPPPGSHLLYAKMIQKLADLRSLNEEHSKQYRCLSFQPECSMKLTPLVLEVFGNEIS
# Method: FIG. 1. […] The values represent the mean of at least two experiments.
# Polarised fluorescence was determined in 384-well black plates for 200 ms/well using a Mithras LB 940 device (Berthold Technologies).
# SKOV-3 cells = experiment: MTT proliferation assay, SKOV-3; conditions: 10^−7 M, 48 hours, 100% control cells
# Method: Proliferation assay in the SKOV-3 cell line of human ovary adenocarcinoma. […] The values were plotted in the graphs as mean±SD. As proliferation value, 100% was considered the normal growth of SKOV-3 cells treated with the carrier in the control.
# (§2) The cells were cultured in 90-mm plates in essential culture medium DMEM, supplemented with 10% bovine foetal serum free of steroid hormones, 100 U/ml penicillin, 100 μg/ml streptomycin and 2 mM non-essential amino acids (L-glutamine) at 37° C. in a humid atmosphere O2/CO2 (95/5%).
# (§3) The first is an indirect method for determining living cells, wherein the yellow water soluble MTT is reduced in mitochondria, thus generating a purple insoluble product (formazan). […] After this time, the culture medium was removed and 500 μl of dimethylsulfoxide (DMSO) was added to each well to solubilise the formazan incorporated by the cells.
# PC-3 cells = experiment: MTT proliferation assay, PC-3; conditions: 10^−7 M, 48 hours, 100% control cells
# Method: Proliferation assay in the PC-3 cell line of human prostate adenocarcinoma. […] The values were plotted in the graphs as mean±SD. As proliferation value, 100% was considered the normal growth of PC-3 cells treated with the carrier in the control.
# as §2, §3
# [4] = Calcaemic effects in mice at 0.3 μg/kg; type: in vivo
# Method: FIG. 8. […] 1,25D and the various analogues were injected intraperitoneally every 2 days for 21 days at a dose of 0.3 μg/Kg. After treatment the calcium levels in the serum were evaluated and the values were represented as mean±SD in […].
# as §1
# [5] = Body weight of mice in the dose-response assay; type: in vivo; conditions: mice, 0.1, 0.5, 1 and 5 μg/kg ip every 2 days for 21 days
# Method: FIG. 10. […] 1,25D (dose of 0.3 μg/kg) and analogues (doses of 0.1, 0.5, 1 and 5 μg/kg) were injected intraperitoneally every 2 days for 21 days. Animals were weighed every two days during treatment. The values were represented as mean±SD in […].
# In this experiment, also the weight of the animals was quantified to determine whether there was any modification throughout the treatment.
# HaCaT cells = experiment: MTT proliferation assay, HaCaT; conditions: 10^−7 M, 48 hours, 100% control cells
# Method: Proliferation assay in the HaCaT cell line of human keratinocytes. […] The values were plotted in the graphs as mean±SD. As proliferation value, 100% was considered the normal growth of HaCaT cells treated with the carrier in the control.
# as §2, §3
# MCF-7 cells [6] = experiment: MTT proliferation assay, MCF-7; conditions: 10^−7 M, 48 hours, 100% control cells
# Method: Proliferation assay in the MCF-7 cell line of human breast adenocarcinoma. […] The values were plotted in the graphs as mean±SD. As proliferation value, 100% was considered the normal growth of MCF-7 cells treated with the carrier in the control.
# as §2
# Cell proliferation/toxicity in breast cancer lines was assessed by both incorporation assays of 3-(4,5-dimethylthiazol-2-yl)-2,5-difeniltetrazolium (MTT) bromide and cell culture in three dimensions (3D).
# as §3
compound,measurement,setting,value
"C=C1/C(=C\C=C(/CC)c2cccc(CCCCCC(C)(C)O)c2)C[C@@H](O)C[C@@H]1O [PG-136p, (1R,3S,Z)-5-((E)-3-(3-(6-hydroxy-6-methylheptyl)phenyl)pent-2-enyliden)-4-methylenecyclohexane-1,3-diol]",Serum calcium versus control animals (placebo),[1]; 5 μg/kg weight ip every two days for 21 days,did not significantly raise serum calcium
same,"Serum calcium versus controls, analogues",[1],does not produce hypercalcemia
same,"Serum calcium versus controls, analogues",[1]; listed as PG136p,None of the two analogues tested (PG136p and PG-403) induces increased serum calcium
same,Tumour volume versus control group,"MDA-MB-231-Luc cells; 5 μ/kg ip every 2 days for 28 days, p≦0.0001",smaller volume
same,Survival rate versus control mice (Kaplan-Meier),"MDA-MB-231-Luc cells; until day 60, p=0.042",higher survival rate
same,Three-dimensional growth of MCF-7 spheroids (in words),MCF-7 cells [2]; 10^−7 M for 7 days,"inhibit the three-dimensional growth, similarly to 1,25D"
same,Cell proliferation percentage MCF-7 3D,"MCF-7 cells [2]; 10^−7 M, matrigel spheroids, 100% control cells",69%
same,EC50,"[3]; Homo sapiens, MCF7, 24 h, read-out: Transcriptional activity EC50",5.97 nM
same,"Transcriptional activity % relative to 1,25D (100%)","[3]; MCF-7 cells, pCYP24A1-Luc",33%
same,Tumour volume versus control group,MCF-7-Luc cells,smaller volume
same,"Binding to VDR % relative to 1,25D (100%)","vitamin D receptor (VDR); activity relative to natural hormone 1,25D normalised at 100%",24%
same,IC50,"vitamin D receptor (VDR); competitive displacement, 10^−11 to 10^−5 M",7.11 nM
same,Cell proliferation percentage SKOV-3 2D,SKOV-3 cells,78%
same,Cell proliferation percentage PC-3 2D,PC-3 cells,78%
same,Hypercalcemia (serum calcium versus control),[4]; 0.3 μg/Kg ip every 2 days for 21 days,does not produce hypercalcemia
same,"Calcaemic activity: blood calcium in percentage over that induced by 1,25D","[4]; ip every two days for 21 days, 0.3 μg/kg (table title prints 0.3 mg/kg)",0%
same,"Body weight versus control animals, analogues",[5],does not change the body weight
same,"Body weight versus control animals, analogues",[5]; listed as PG136p,did not significantly affect the body weight
same,Cell proliferation percentage HaCaT 2D,HaCaT cells,68%
same,Cell proliferation percentage MCF-7 2D,MCF-7 cells [6],65%
